Legend:
[1] = tested on: HIV-1 clone ZM247Fv-1 (subtype C); experiment: HIV-1 ZM247Fv-1 (subtype C) infection of MT-4 cells, Cell Titer Blue readout; format: cell-based
Protocol: (§1) Human PMBCs were incubated with 100 U recombinant IL-2 (Sigma-Aldrich) and 5 µg/mL phytohemagglutinin-P (PHA-P) (Difco) for 5 days at 37°C. MT-4 cells (1×10^6) or treated PBMCs (1.2×10^8) were infected with HIV-1 clone NL-4.3 or ZM247Fv-1 (MOI of 0.001) by spinoculation (1200 g at room temperature for 2 h). Uninfected cells were used as negative control and were also subjected to the spinoculation process. After spinoculation, supernatants were discarded and cells were resuspended in 10 mL of R10. Cells from each condition were then added to wells (96-well plate) containing serial dilutions of each ISD. For MT-4 cells, each dilution was done in sextuplicates and, for PBMCs, in triplicates. Cells were also incubated with different concentrations of ZDV as positive control. After 5 days in culture, Cell Titer Blue was added to each well and cells were incubated for additional 24 h. The median effective concentration for each drug is defined as EC50. In parallel with the infectivity assay, the same cell types were treated with different concentrations of drugs to determine their cytotoxicity, following the protocol described above. Drug concentration that results in a 50% decrease in viable cells is defined as the CC50 for each compound. EC50 was calculated according to Spearman-Karber and therapeutic index was defined by the ratio between CC50 and EC50 [55].
(§2) All statistical analyses were performed using program GraphPism version 6.0. Titrations for TCID50 infectivity were calculated by the Spearman-Karber method. Dose response curves to ISDs with HIV-1 subtype B and C were done using non-linear regression and were fit to the Hill equation.

[2] = tested on: HIV-1 clone NL4.3 (subtype B); experiment: HIV-1 NL4.3 (subtype B) infection of human PBMCs, Cell Titer Blue readout; format: cell-based
Protocol: as §1, §2

[3] = Cytotoxicity (CC50) in MT-4 cells; format: cell-based; conditions: human, Subtype B (X4)
Protocol: (§3) Cytotoxicity of ISDs was evaluated in J-Lat (clones 9.2 and 10.6) and PHA-activated human PBMCs. Cells were added to wells in a 96-well plate in the presence of various concentrations of ISDs, PMA or prostratin in sextuplicates for 24 and 72 h. Cell viability was determined using the CellTiter-blue fluorescence Cell Viability Assay (Promega) following the manufacturer's instruction.
as §1

[4] = Cytotoxicity (CC50) in human PBMCs; format: cell-based; conditions: human PBMCs activated with IL-2 and PHA-P; Human PBMC, Subtype C (R5)
Protocol: as §3, §1

[5] = tested on: J1.1 cells; experiment: gag p24 production in J1.1 cells (ELISA); format: cell-based, HIV-1; conditions: 1 µM, 48 h
Protocol: ACH-2 and J1.1 are clonal cell lines derived from CEM [52] and Jurkat cells, respectively, after infection with HIV-1. U1 cells were derived from the human promonocyte cell line U937 and chronically infected with HIV-1 [54]. Each cell line (1×10^6 cells) was incubated in the presence of 1 µM of diterpenes (ING-A, ING-B, ING-C, prostratin and PMA) or 10 ng/mL TNF-α for 48 h at 37°C. After incubation, cells were centrifuged and supernatants were collected for the quantitation of gag p24 antigen by ELISA, following the protocol described by the manufacturer (Perkin Elmer).

[6] = tested on: human PBMCs; experiment: Cytotoxicity in human PBMCs at 24 and 72 h; format: cell-based
Protocol: as §3

[7] = tested on: HIV-1 NL4.3-Luc; experiment: Luciferase expression in CD4+ T cells pre-treated and infected with NL4.3-Luc; format: cell-based; conditions: cells pre-treated 24 h, infected with NL4.3-Luc MOI 0.1
Protocol: CD4+ T cells were isolated by negative selection from human PBMCs (2.5×10^8 cells) using magnetic beads (Miltenyi) and incubated with 5 µg/mL PHA-P and 100 U IL-2 for 5 days. Cells were then seeded in 6-well plates (10^6 cells per well) and treated with different concentrations of ING-B. After 24 h, cells were infected with HIV-1 NL-Luc (MOI of 0.1) by spinoculation. Infected cells were kept at 37°C for 24 h and then collected for luciferase activity evaluation as described above.

[8] = tested on: human PBMCs; experiment: Cellular proliferation assay (CFSE) in human PBMCs; format: cell-based; conditions: CFSE-stained human PBMC, 1, 5 or 10 µM, 8 days
Protocol: Human PBMCs were stained with CFSE following manufacturer's instructions (Sigma-Aldrich). After staining, cells were washed twice in PBS and incubated with ING-B (1, 5 or 10 µM), 5 µg/mL PHA-P plus 10 U/mL IL-2 (as positive control), or DMSO 1% (as negative control). Cell proliferation was assessed for 8 days after stimulation, and relative proliferation index was calculated for all conditions.

[9] = tested on: latent HIV in CD4+ T cells from virally suppressed patients; experiment: HIV pol RNA (RT-qPCR) in CD4+ T cells from HIV+ HAART-treated patients; format: cell-based, human; conditions: CD4+ T cells of five HIV+ HAART-treated patients, 1 µM, 24 h
Description: Whole blood from five HIV+ patients at the Hospital Universitário Gaffrée e Guinle (Rio de Janeiro, Brazil) was collected for reactivation experiments. All individuals enrolled in the study voluntarily and provided written informed consent. Patients presented undetectable viral load (<50 copies/mL), more than 500 CD4+ T cells/mm^3 and have been HAART-treated for at least 10 months (Table 1). PBMCs where isolated following a Ficoll-Paque Plus protocol (GE Healthcare, UK). CD4+ T cells were selected by magnetic beads as described above, and 10^6 cells were incubated in R10 containing 1 µM of the testing compounds (ING-B, prostratin or PMA). DMSO 1% was used as negative control. The antiretroviral EFV (10 µM) was added to all conditions to prevent viral spread. After 24 h, cells were collected for RNA isolation using the All Prep Qiagen kit (Qiagen), as instructed by the manufacturer.
Total RNA from CD4+ T cells was analyzed by RT-qPCR using primers and probe (Life Technologies) specific for the HIV-pol region, as following: forward primer Pol-F (5'-[…] TTT T-3'), reverse primer Pol-R (5'-[…]-3') and a minor groove binder (MGB) probe Pol-Pb (5'-VIC-ATC CCC CCT TTT CTT T-3'). […]

[10] = parameters: method as in earlier work; conditions: rats, oral dosing; ref personal communication from Aurigon Life Science – Tutzing, Germany; cited from earlier work

CCCCCC(=O)O[C@H]1C(C)=C[C@]23C(=O)[C@@H](C=C(CO)[C@@H](O)[C@]12O)[C@H]1[C@@H](C[C@H]3C)C1(C)C [ING-B, ingenol-3-hexanoate]
EC50 ([1]; Human immunodeficiency virus 1, MT4): 0.025 µM | TI (CC50/EC50) ([1]; MT-4 cells, Subtype C (R5)): 1120 | TI (CC50/EC50) ([2]; Human PBMC, Subtype B (X4)): 714.3 | EC50 ([2]; Human immunodeficiency virus 1, PBMC): 0.056 µM | CC50 at 5 days [3]: 28 µM | CC50 at 5 days [4]: 40 µM | p24 production (in words) [5]: as much p24 production as PMA and TNF-α, and twice as much as prostratin | cytotoxicity [6]: less cytotoxic after 72 h of treatment | levels of HIV-driven luciferase [7]: dramatically reduced | cell proliferation [8]: no evidence that ING-B caused cell proliferation | HIV transcription (in words) [9]: levels similar to PMA treatment | no-observed-adverse-effect level [10]: 4 mg/kg/day

From article PMC4020785 (PLoS ONE, 2014)
